Data as given in the NIST ThermoML archive (doi:10.1016/j.jct.2017.12.023).

Assay: refractive index (Na D-line) (dimensionless); xn = mol fraction of the nth substance listed
Settings: 100 kPa, Liquid, Standard Abbe refractometry

CCOS(=O)(=O)[O-].CCn1cc[n+](C)c1 [1-ethyl-3-methylimidazolium ethyl sulfate] + CN1CCCC1=O
refractive index
Settings | 288.15 K | 293.15 K | 298.15 K | 303.15 K | 308.15 K | 313.15 K | 318.15 K | 323.15 K | 328.15 K | 333.15 K
x1 = 0.1009 | 1.47616 | 1.47418 | 1.47223 | 1.47026 | 1.46833 | 1.46634 | 1.4644 | 1.46246 | 1.46054 | 1.45863
x1 = 0.2012 | 1.47863 | 1.47679 | 1.47496 | 1.47313 | 1.4713 | 1.46948 | 1.46772 | 1.4659 | 1.46409 | 1.46232
x1 = 0.3021 | 1.47981 | 1.47807 | 1.47633 | 1.4746 | 1.47285 | 1.47118 | 1.4695 | 1.46777 | 1.46607 | 1.46438
x1 = 0.4012 | 1.48047 | 1.47881 | 1.47714 | 1.47547 | 1.47384 | 1.47225 | 1.47069 | 1.46906 | 1.46742 | 1.46584
x1 = 0.4973 | 1.48086 | 1.47925 | 1.47766 | 1.47608 | 1.47453 | 1.473 | 1.47143 | 1.46985 | 1.46828 | 1.46677
x1 = 0.596 | 1.48094 | 1.47939 | 1.47787 | 1.47635 | 1.47488 | 1.47343 | 1.47195 | 1.47045 | 1.46895 | 1.46746
x1 = 0.6998 | 1.48099 | 1.47951 | 1.47804 | 1.47659 | 1.47517 | 1.47375 | 1.47229 | 1.47084 | 1.46939 | 1.46794
x1 = 0.7961 | 1.48127 | 1.47983 | 1.47841 | 1.47701 | 1.47561 | 1.47423 | 1.47284 | 1.47143 | 1.47005 | 1.46865
x1 = 0.8821 | 1.48147 | 1.48006 | 1.47867 | 1.47728 | 1.47592 | 1.47453 | 1.47317 | 1.4718 | 1.47044 | 1.4691
x1 = 1 | 1.48155 | 1.48018 | 1.47882 | 1.47746 | 1.47611 | 1.47474 | 1.47341 | 1.47206 | 1.47075 | 1.46943
